Measurements from patent US20110020914A1, “METHODS FOR ENHANCING GROWTH OF ORGANISMS IN AN AQUEOUS GROWTH MEDIUM” (NOVUS INTERNATIONAL INC, priority 2009, published 2011).

Legend:
Assay type in all cases: cell-based
Chlorella vulgaris [1] = experiment: Effect of chelated micronutrients on growth (cell density, spectrophotometer 450 nm) of Chlorella vulgaris; settings: up to 24 days, vs control
Procedure: To assess the efficacy of chelated micronutrients on the growth of Chlorella vulgaris, a fresh-water green microalgae, the following experiment was conducted. Chlorella vulgaris microalgae were maintained in stock cultures as described in Example 1. The microalgae were inoculated at an initial concentration of about 10^4 cells/ml into 250 ml conical flasks containing 100 ml of an algal growth medium having a composition described in Table 3.
Three different chelated micronutrient compositions were added to the growth medium of the flasks at six different concentrations to each algal culture for final concentrations of 0 mg/ml (control), […], 10^−4 mg/ml, 10^−3 mg/ml and 10^−2 mg/ml. The metal micronutrient compositions tested were Cu-HMTBA (BIOX-C), Zn-HMTBA (BIOX-Z), and Mn-HMTBA (BIOX-M). For each concentration of a particular micronutrient composition, three duplicate flasks were tested.
The flasks containing the added compounds were cultured in a chamber in which the temperature was maintained at 21° C.-25° C. In addition, the chamber provided continuous uniform illumination with a quantum flux of 0.72 10-20 photon/m^2+/−20% in the spectral range of 400-700 nm (8000 flux). The contents of the flasks were shaken, stirred, or aerated during the experiment to facilitate the transfer of CO2 to the microalgae.
Samples from each flask were taken after 2, 7, 12, 15, 18, 21, and 24 days of growth in the flasks and analyzed in quadruplicate to determine the cell density of the microalgae. The cell density was determined using a spectrophotometer at a wavelength setting of 450 nm and using a filtered growth medium sample as a blank. The sample volume analyzed was 100 μL per well.

Chlorella vulgaris [2] = experiment: Effect of chelated micronutrients on lipid accumulation (Nile Red fluorescence) in Chlorella vulgaris
Procedure: To assess the efficacy of chelated micronutrients on the lipid content of Chlorella vulgaris, a fresh-water green microalgae, the following experiment was conducted. Chlorella vulgaris microalgae colonies were cultured in algal culture media containing added BIOX-C, BIOX-Z, and BIOX-M as described in Example 3. Samples from each flask were taken after 9, 30, and 39 days of growth in the flasks and analyzed in triplicate to determine the lipid content of the microalgae cells. A fluorometric method was used determine cellular lipid accumulation. 4-mL culture samples were mixed with Nile Red (9-diethylamino-5H-benzophenoxazine-5-one) at a 100:1 volume ratio and allowed to stain for about seven minutes. Cytoplasmic lipids were then measured by the florescence intensity using a fluorometer (excitation 475 nm; emission 585 nm). The relative fluorescence for lipid content was obtained after subtraction of both the autofluorescence of algal cells and the self-fluorescence of the Nile Red dye from the uncorrected readings at 585 nm wavelengths.

Chlorella vulgaris [3] = experiment: Effect of chelated micronutrients on protein content (Coomassie Blue G, 595 nm) of Chlorella vulgaris
Procedure: To assess the efficacy of chelated micronutrients on the protein content of Chlorella vulgaris, a fresh-water green microalgae, the following experiment was conducted. Chlorella vulgaris microalgae colonies were cultured in algal culture media containing added BIOX-C, BIOX-Z, and BIOX-M as described in Example 3.
Samples from each flask were taken after 2, 7, 12, 15, 21, and 30 days of growth in the flasks and analyzed in triplicate to determine the protein content of the microalgae cells. The protein contents of the microalgal colonies were determined by using a spectrophotometer to measure microalgal cells in which the proteins were marked with a dye. 0.04-mL culture samples were gently mixed with 2 ml of Coomassie Blue G dye in a 4 mL plastic cuvette. Cytoplasmic proteins were then measured by measuring the absorbance of the dyed sample at a wavelength of 595 nm using a […].

Dunaliella tertiolecta = experiment: Effect of chelated zinc on growth (cell density, haemocytometer) of Dunaliella tertiolecta; settings: cultured with 10^−6 to 10^−2 mg/ml in f/2 medium, 18 days, vs control
Procedure: To assess the efficacy of adding HMTBA-chelated zinc (BIOX-Z) to the growth medium on the growth of the microalgae Dunaliella tertiolecta, the following experiment was conducted. Dunaliella tertiolecta was maintained in stock cultures in 20 ml test tubes at a cell density of about 2.5-5.0×10^4 cells/ml as seed cultures and maintained on a seven-day transfer cycle. The microalgae were inoculated into 1 L Pyrex glass Erlenmeyer flasks containing 250 ml of f/2 growth medium (Guillard 1975).
BIOX-Z was dissolved in distilled water and added at six different concentrations to each algal culture for final concentrations of 0 mg/ml (control), 10^−6 mg/ml, 10^−5 mg/ml, 10^−4 mg/ml, 10^−3 mg/ml and 10^−2 mg/ml. Each of the six test groups included 3 individual flasks.
The D. tertiolecta cells were grown in the flasks at a temperature of about 20° C. for a total of 18 days. Light was supplied to the cultures on a cycle of 12 hours of light and 12 hours of dark, at an intensity of 133-299 uEin/sec/cm^2 using a fluorescent light bulb bank (2-F20T12 Westinghouse cool white, Westinghouse Electric Corp., USA). Five samples from each of the test groups were taken each day, and the cell density of each sample was determined using a haemocytometer.

Nitzchia sp. microalgae = experiment: Effect of chelated zinc on growth (cell density) of Nitzchia sp. microalgae; settings: 10^−3 mg/ml, 18 days, vs control
Procedure: To assess the efficacy of HMTBA-chelated zinc (BIOX-Z) on the growth of microalgae from the genus Nitzchia, the following experiment was conducted. Microalgae from the genus Nitzchia was maintained in stock cultures as described in Example 1. The microalgae were inoculated into 1 L flasks and varying amounts of BIOX-Z were added to the flasks as described in Example 1. The Nitzchia cells were grown in the flasks as described in Example 1 for a total of 18 days. Samples were taken from the flasks each day to assess the cell density as described in Example 1.

[4] = all concentrations, after 30 days of growth
[5] = 0.000001-0.0001 mg/mL, after thirty days of growth
[6] = 0.001 mg/mL, thirty days of growth
[7] = all concentrations, through the entire period of growth

Row | Compound | growth of Chlorella vulgaris (cell density) (Chlorella vulgaris [1]; 10^−2 mg/mL) | growth of Chlorella vulgaris (cell density) (Chlorella vulgaris [1]; 10^−3 mg/mL) | growth of Chlorella vulgaris (cell density) (Chlorella vulgaris [1]; 10^−4 mg/mL) | growth of Chlorella vulgaris (cell density) (Chlorella vulgaris [1]; 10^−5 mg/mL) | growth of Chlorella vulgaris (cell density) (Chlorella vulgaris [1]; 10^−6 mg/mL) | lipid content of Chlorella vulgaris cells (Chlorella vulgaris [2]; [4]) | protein content relative to control (Chlorella vulgaris [3]; [5]) | protein content relative to control (Chlorella vulgaris [3]; [6]) | further results
1 | CSCCC(O)C(=O)[O-].CSCCC(O)C(=O)[O-].[Cu+2] (stereo not shown) [BIOX-C, Cu-HMTBA] | inhibited | no effect | enhanced | enhanced | enhanced | enhanced | 10-12 times the control protein content | about 4.5 times the control protein content | enhancement of microalgal lipid content compared with all compositions tested (Chlorella vulgaris [2]; 10^−2 mg/mL): largest enhancement; lipid content of Chlorella vulgaris cells (Chlorella vulgaris [2]; 10^−2 mg/mL, after 39 days of growth): higher lipid content than the control colony; lipid content of Chlorella vulgaris cells (Chlorella vulgaris [2]; 10^−3 mg/mL, after 39 days of growth): higher lipid content than the control colony; lipid content of Chlorella vulgaris cells (Chlorella vulgaris [2]; all concentrations, after 9 days of growth): enhanced; protein content of the microalgae cells (Chlorella vulgaris [3]; 0.01 mg/mL, vs control cells): inhibited; protein content relative to control (Chlorella vulgaris [3]; 10^−4 mg/mL, after thirty days of growth, largest enhancement of all compositions tested): about 12.8 times the control protein content; protein content of Chlorella vulgaris cells (Chlorella vulgaris [3]; all concentrations except 0.01 mg/mL, at twelve days of growth or longer): enhanced
2 | CSCCC(O)C(=O)[O-].CSCCC(O)C(=O)[O-].[Mn+2] (stereo not shown) [BIOX-M, Mn-HMTBA] | enhanced | inhibited | enhanced | enhanced | enhanced | enhanced | 10-12 times the control protein content | 7-8 times the control protein content | lipid content of Chlorella vulgaris colonies (Chlorella vulgaris [2]; 10^−5 mg/mL, after 39 days): enhanced to a lesser degree; lipid content of Chlorella vulgaris colonies (Chlorella vulgaris [2]; 10^−6 mg/mL, after 39 days): enhanced to a lesser degree; lipid content of Chlorella vulgaris colonies (Chlorella vulgaris [2]; concentrations of less than 10^−2 mg/mL, after nine days): enhanced; protein content relative to control (Chlorella vulgaris [3]; 0.01 mg/mL, thirty days of growth): 7-8 times the control protein content; protein content of Chlorella vulgaris colonies (Chlorella vulgaris [3]; all concentrations, after 21 days or more of growth): enhanced
3 | CSCCC(O)C(=O)[O-].CSCCC(O)C(=O)[O-].[Zn+2] (stereo not shown) [BIOX-Z, Zn-HMTBA] | no effect | enhanced | enhanced | enhanced | enhanced | – | – | – | concentration of D. tertiolecta cells (Dunaliella tertiolecta): enhanced; concentration of Nitzchia cells (Nitzchia sp. microalgae): enhanced; lipid content of Chlorella vulgaris cells, concentration of greatest enhancement (Chlorella vulgaris [2]; 10^−3 mg/mL): most enhanced; lipid content of Chlorella vulgaris cells (Chlorella vulgaris [2]; [7]): enhanced; protein content of Chlorella vulgaris cells, concentration of greatest enhancement (Chlorella vulgaris [3]; 10^−5 mg/mL): most enhanced; protein content relative to control (Chlorella vulgaris [3]; 10^−5 mg/mL, after 30 days of growth): over twelve times; protein content of Chlorella vulgaris cells (Chlorella vulgaris [3]; [7]): enhanced
